In ChEMBL document CHEMBL3526091, “Pharmacokinetics, metabolism, and excretion of the glycogen synthase kinase-3 inhibitor LY2090314 in rats, dogs, and humans: a case study in rapid clearance by extensive metabolism with low circulating metabolite exposure” (Drug Metab Dispos, 2013):

Columns and labels:
Conditions in all cases: in vivo
Plasma [1] = test: Drug recovery in beagle dog plasma assessed as radiochemical peak area treated with 5 mg/kg, iv LY2090314 for 30 mins after 2 hrs by radio analysis; type: ADME, organism-based, Canis lupus familiaris; design: dose 5 mg/kg, dosed compound name [14C]LY2090314, route intravenous
Plasma [2] = test: Drug recovery in beagle dog plasma assessed as radiochemical peak area treated with 5 mg/kg, iv LY2090314 for 30 mins after 0.5 hrs by radio analysis; type: ADME, organism-based, Canis lupus familiaris; design: dose 5 mg/kg, dosed compound name [14C]LY2090314, route intravenous
[3] = Drug recovery in bile duct-intact beagle dog assessed as radioactivity in feces during 0 to 48 hrs treated with 5 mg/kg, iv LY2090314 for 30 mins; type: ADME, organism-based, Canis lupus familiaris; design: dose 5 mg/kg, dosed compound name [14C]LY2090314, route intravenous
[4] = Drug recovery in bile duct-cannulated Sprague-Dawley rat assessed as radioactivity in bile during 0 to 12 hrs treated with 5 mg/kg, iv LY2090314 for 30 mins; type: ADME, organism-based; design: dose 5 mg/kg, dosed compound name [14C]LY2090314, route intravenous
[5] = Drug recovery in po dosed mouse feces; type: ADME, organism-based; design: dosed compound name Ruboxistaurin
[6] = Drug recovery in po dosed human urine; type: ADME, organism-based; design: dosed compound name Ruboxistaurin
[7] = Drug recovery in po dosed rat bile; type: ADME, organism-based; design: dosed compound name Ruboxistaurin
[8] = Drug recovery in po dosed dog feces; type: ADME, organism-based, Canis lupus familiaris; design: dosed compound name Ruboxistaurin
[9] = Drug recovery in po dosed dog urine; type: ADME, organism-based, Canis lupus familiaris; design: dosed compound name Ruboxistaurin
[10] = Drug recovery in po dosed rat feces; type: ADME, organism-based; design: dosed compound name Ruboxistaurin
[11] = Drug recovery in po dosed rat urine; type: ADME, organism-based; design: dosed compound name Ruboxistaurin
[12] = Drug recovery in po dosed mouse urine; type: ADME, organism-based; design: dosed compound name Ruboxistaurin
[13] = Drug recovery in po dosed human feces; type: ADME, organism-based; design: dosed compound name Ruboxistaurin

For `O=C1NC(=O)C(c2c[n+](O[C@@H]3O[C@H](C(=O)O)[C@@H](O)[C@H](O)[C@H]3O)c3ccccn23)=C1c1cn2c3c(cc(F)cc13)CN(C(=O)N1CCCCC1)CC2`, the Compound recovery (Plasma [1]) was 18.81%, the Compound recovery (Plasma [2]) was 12.66% and the Compound recovery [3] was 5.42%.

For `O=C(O)CCNC(=O)N1CCn2cc(C3=C(c4cnc5ccccn45)C(=O)NC3=O)c3cc(F)cc(c32)C1`, the Compound recovery [4] was 0%.

Compound `NC(=O)N1CCn2cc(C3=C(c4cnc5ccccn45)C(=O)NC3=O)c3cc(F)cc(c32)C1` has a Compound recovery (Plasma [1]) of 0%, a Compound recovery (Plasma [2]) of 0.1% and a Compound recovery [4] of 4.15%.

`O=C(CCNC(=O)N1CCn2cc(C3=C(c4cnc5ccccn45)C(=O)NC3=O)c3cc(F)cc(c32)C1)NCCS(=O)(=O)O` showed a Compound recovery [4] of 6.76%.

In the case of `CN(C)C[C@@H]1CCn2cc(c3ccccc32)C2=C(C(=O)NC2=O)c2cn(c3ccccc23)CCO1` [RUBOXISTAURIN], the Radiolabel recovery [5] was 83%, the Radiolabel recovery [6] was “<= 4%” and the Radiolabel recovery [7] was 59%. The Radiolabel recovery [8] was 83%, the Radiolabel recovery [9] was “<= 4%” and the Radiolabel recovery [10] was 83%. The Radiolabel recovery [11] was “<= 4%”, the Radiolabel recovery [12] was “<= 4%” and the Radiolabel recovery [13] was 83%.
